Measurements reported in patent US11702443B2, “Therapeutic agents and methods” (Pop Test Oncology LLC, priority 2016, dated 2023).
Converted amounts (≈) assume the structure as drawn. “Also recorded” adds a separate entry of the source. Where two headings read alike, the source gives them in different places.

Columns and labels:
[1] = tested on: Mycobacterium tuberculosis virulent standard strain H37Rv; test: Standard resazurin-resorufin assay versus M. tuberculosis H37Rv; assay type: cell-based
[2] = tested on: Staphylococcus aureus infection; details: cited from earlier work
[3] = tested on: Staphylococcus aureus ATCC 6538; details: cited from earlier work
[4] = tested on: Staphylococcus aureus Tour; details: cited from earlier work
[5] = tested on: Staphylococcus aureus Tour Rif-resistant; details: cited from earlier work
[6] = tested on: Streptococcus haemolyticus = S. pyogenes C 203; details: Streptococcus haemolyticus C 203, cited from earlier work
[7] = tested on: Diplococcus pneumoniae = Streptococcus pneumoniae U.C. 41; details: Diplococcus pneumoniae U.C. 41; cited from earlier work
[8] = tested on: Proteus vulgaris ATCC 881; details: cited from earlier work
[9] = tested on: Escherichia coli ATCC 10536; details: cited from earlier work
[10] = tested on: Klebsiella pneumoniae ATCC 10031; details: cited from earlier work
[11] = tested on: Pseudomonas aeruginosa ATCC 10145; details: cited from earlier work
[12] = tested on: Mycobacterium tuberculosis ATCC 9360 H37Rv; details: cited from earlier work
[13] = cited from earlier work
[14] = in vivo; cited from earlier work
cancer cells = test: Cytotoxicity to cancer cells; assay type: cell-based
[15] = tested on: Human Hepatitis B Virus Subtype ayw; test: In vitro antiviral activity versus HBV ayw replication, RT-qPCR; assay type: cell-based; details: HepG2 2.2.15
NF-κB = test: NF-κB-luciferase reporter in mixed cultures of primary astrocytes and microglia; assay type: cell-based, mice; details: 1 μM, 10 μM and 100 μM, 3 hours; then Poly I:C, LPS or TNFα for 24 h
HepG2 2.2.15 = test: Host cytotoxicity in HBV assay; details: HepG2 2.2.15; rows of RT-qPCR assay
B. subtilis = test: Agar Disk Diffusion Assay with B. subtilis; assay type: cell-based, Bacillus subtilis
Bacillus megaterium = test: Activity versus Bacillus megaterium; assay type: cell-based
[16] = Hydrolysis in formic acid-acidified (0.05%) HPLC eluent; assay type: physicochemical; details: compared with rifampicin
Method: Compound stock solutions were diluted to 2 mM in DMSO and injected into an Agilent 1100 HPLC system using the following conditions for separation: Phenomenex Gemini C18 column, 3×50 mm; flow rate 0.45 ml/min; gradient 5-95% acetonitrile in water over 8 min with all solvents containing 0.05% formic acid. Detection used the following: UV detector—Agilent diode array, monitored at 214 and 254 nm; mass spectrometry detector (MSD)—Agilent MSD, electrospray ionization, positive mode.
The chromatographic separation of TPR-1 is given in FIGS. 15A to C. • There are four peaks (4.462 min, 4.951 min, 5.657 min, 6.679 min) at 214 nm and 254 nm diode array UV detection • No other significant peaks are seen • The two main peaks (4.951 min, 5.657 min) stem from the two discernible, coexisting ionic forms of the rifamycin.
[drawing 32] • In the above picture the left formula is zwitterionic, whereas the right formula is cationic. The zwitterionic form elutes at 4.951 min, since it is more polar, and the cationic form elutes at 5.657 min, since it is more lipophilic. The cationic form was integrated by IDRI as 59%. So the cationic form dominates in the formic acid-acidified (0.05%) HPLC eluent, as to be expected • The two small side peaks stem from hydrolysis of TPR-1 by the formic acid-acidified (0.05%) HPLC eluent. This is a phenomenon well-known for rifampcin (Ref. 2). […]

[17] = Chemical stability (atmospheric oxygen, hydrolysis, UV light)
[18] = tested on: Human Hepatitis B Virus Subtype ayw; test: In vitro antiviral activity versus HBV ayw replication, DNA (Southern) hybridization; assay type: cell-based; details: HepG2 2.2.15
[19] = Host cytotoxicity in HBV assay; details: human, HepG2 2.2.15 cells
[20] = strain H37Rv, read-out: Minimal inhibitory concentration 99% (MIC99) in nmol/Liter
[21] = strain H37Rv, read-out: Minimal inhibitory concentration 99% (MIC99) in μg/ml

## CO[C@H]1/C=C/O[C@@]2(C)Oc3c(C)c(O)c4c(O)c(c(/C=N/O)c(O)c4c3C2=O)NC(=O)/C(C)=C\C=C\[C@H](C)[C@H](O)[C@@H](C)[C@@H](O)[C@@H](C)[C@H](OC(C)=O)[C@@H]1C [OR-1, 3-Formylrifamycin SV (E)-oxime 1.2 hydrate]
[1]; [20]
  MIC99: 787 nmol/L
[1]; [21]
  MIC99: 0.6 µg/mL
[2]
  In vivo effective dose 50% (ED50) (mg/kg) in curing Staphylococcus aureus infection in mice, per os: 5.66 mg/kg
  In vivo effective dose 50% (ED50) (mg/kg) in curing Staphylococcus aureus infection in mice, subcutaneous: 2.46 mg/kg
[3]
  MIC (μg/ml) reference 1 (1966): 0.02 µg/mL
[4]
  MIC (μg/ml) reference 2 (1974): 0.02 µg/mL
[5]
  MIC (μg/ml) reference 2 (1974): >100 µg/mL
[6]
  MIC (μg/ml) reference 1 (1966): 0.01 µg/mL
  MIC (μg/ml) reference 2 (1974): 0.01 µg/mL
[7]
  MIC (μg/ml) reference 2 (1974): 0.01 µg/mL
[8]
  MIC (μg/ml) reference 1 (1966): 10 µg/mL
  MIC (μg/ml) reference 2 (1974): 10 µg/mL
[9]
  MIC (μg/ml) reference 1 (1966): 5 µg/mL
  MIC (μg/ml) reference 2 (1974): 5 µg/mL
[10]
  MIC (μg/ml) reference 1 (1966): 20 µg/mL
  MIC (μg/ml) reference 2 (1974): 20 µg/mL
[11]
  MIC (μg/ml) reference 1 (1966): 10 µg/mL
  MIC (μg/ml) reference 2 (1974): 10 µg/mL
[12]
  MIC (μg/ml) reference 1 (1966): 5 µg/mL
  MIC (μg/ml) reference 2 (1974): 5 µg/mL
[13]
  In vivo lethal dose 50% (LD50) (mg/kg) intravenous in mice: 690 mg/kg
[14]
  Oral bioavailability: orally bioavailable

## Tetrakis{3-[(tricyclo[3.3.1.1^3,7]decan-1-ammonio)methyl]benzyl}ammonium pentachloride [PT162]
Cancer cells
  Cytotoxicity to cancer cells: extremely cytotoxic to cancer cells

## ⅓(11β,17β)-17-Hydroxy-11-[3,4-(methylenedioxy)phenyl]-17-(1-propyn-1-yl)estra-4,9-dien-3-one (PT150)×(2EZ)-2-{(11β,17β)-17-hydroxy-11-[3,4-(methylenedioxy)phenyl]-17-(1-propyn-1-yl)estra-4,9-dien-3-ylidene}hydrazinecarbothioamide [71.8% (E), 28.2% (Z)]×⅓ H2O× 7/9 acetone [PT155]
[15]
  EC50: 10.8 µM
  EC90: > 100 µM
NF-κB
  Luciferase activity (suppression of inflammation): dose dependent decrease of luciferase activity
Solubility; ethanol, acetone, DMSO, DMF, ethyl acetate, and chloroform
  Solubility in organic solvents: very soluble
Solubility; water
  Solubility in water: not soluble in water initially
HepG2 2.2.15
  CC50: > 100 µM

## CO[C@H]1/C=C/O[C@@]2(C)Oc3c(C)c(O)c4c(O)c(c(/C=N/N5CC[N+](C)(CC#C[Si](C)(C)C)CC5)c([O-])c4c3C2=O)NC(=O)/C(C)=C\C=C\[C@H](C)[C@H](O)[C@@H](C)[C@@H](O)[C@@H](C)[C@H](OC(C)=O)[C@@H]1C [TPR-1, Nω[3-(Trimethylsilyl)prop-2-yn-1-yl]rifampicinium-4-olate×¾ HBr×H2O]
[1]; [20]
  MIC99: 19.8 to 39.5 nmol/L
[1]; [21]
  MIC99: 0.02 to 0.04 µg/mL
B. subtilis
  Activity versus Bacillus subtilis: highly active
B. subtilis; Bacillus subtilis, paper disc with 1 μg, overnight at 30° C., read-out: Clearance zones (in mm)
  zone of inhibition at 1 µg/disc: 18.3 mm
B. subtilis; Bacillus subtilis, paper disc with 10 μg, overnight at 30° C., read-out: Clearance zones (in mm)
  zone of inhibition at 10 µg/disc: 21.1 mm
Bacillus megaterium
  Activity versus Bacillus megaterium: highly active
[16]
  Susceptibility to hydrolysis of the hydrazone imine group in acidic media: more susceptible to this hydrolysis than rifampicin
NF-κB
  Luciferase activity (suppression of inflammation): dose dependent decrease of luciferase activity
[17]
  Oxidation by atmospheric oxygen: not oxidized by atmospheric oxygen; also recorded: resistant to oxidation
  Stability towards hydrolysis and UV light: enhanced stability towards hydrolysis and UV light

## CO[C@H]1/C=C/O[C@@]2(C)Oc3c(C)c(O)c4c(O)c(c(/C=N/N5CCN(C)CC5)c(O)c4c3C2=O)NC(=O)/C(C)=C\C=C\[C@H](C)[C@H](O)[C@@H](C)[C@@H](O)[C@@H](C)[C@H](OC(C)=O)[C@@H]1C [Rifampicin, reference compound]
[1]; H37RV, read-out: Minimal inhibitory concentration 99% (MIC99) in nmol/Liter (nM)
  MIC99: 72.7 nmol/L
[1]; H37RV, read-out: Minimal inhibitory concentration 99% (MIC99) in μg/ml
  MIC99: 0.06 µg/mL

## Nc1ccn([C@@H]2CS[C@H](CO)O2)c(=O)n1 [Lamivudine]
[18]
  EC50: 0.026 µM
  EC90: 0.116 µM
[19]
  CC50: 2190 µM

## CO/N=C/c1c2c(O)c3c(O)c(C)c4c(c3c1O)C(=O)[C@@](C)(O/C=C/[C@H](OC)[C@@H](C)[C@@H](OC(C)=O)[C@H](C)[C@H](O)[C@H](C)[C@@H](O)[C@@H](C)/C=C/C=C(/C)C(=O)N2)O4 [MR-1, (2S,12Z,14E,16S,17S,18R,19R,20R,21S,22R,23S,24E)-21-(acetyloxy)-5,6,9,17,19-pentahydroxy-23-methoxy-8-[(E)-(methoxyimino)methyl]-2,4,12,16,18,20,22-heptamethyl-2,7-(epoxypentadeca[1,11,13]trienimino)naphtho[2,1-b]furan-1,11(2H)-dione]
[1]; [20]
  MIC99: 106 nmol/L
[1]; [21]
  MIC99: 0.08 µg/mL
[2]
  In vivo effective dose 50% (ED50) (mg/kg) in curing Staphylococcus aureus infection in mice, per os: 0.53 mg/kg
  In vivo effective dose 50% (ED50) (mg/kg) in curing Staphylococcus aureus infection in mice, subcutaneous: 0.87 mg/kg
[3]
  MIC (μg/ml) reference 1 (1966): 0.0005 µg/mL (≈ 0.000662 µM)
[4]
  MIC (μg/ml) reference 2 (1974): 0.002 µg/mL (≈ 0.00265 µM)
[5]
  MIC (μg/ml) reference 2 (1974): >100 µg/mL
[6]
  MIC (μg/ml) reference 1 (1966): 0.01 µg/mL (≈ 0.0132 µM)
  MIC (μg/ml) reference 2 (1974): 0.01 µg/mL (≈ 0.0132 µM)
[7]
  MIC (μg/ml) reference 2 (1974): 0.01 µg/mL (≈ 0.0132 µM)
[8]
  MIC (μg/ml) reference 1 (1966): 2 µg/mL (≈ 2.65 µM)
  MIC (μg/ml) reference 2 (1974): 2 µg/mL (≈ 2.65 µM)
[9]
  MIC (μg/ml) reference 1 (1966): 5 µg/mL (≈ 6.62 µM)
  MIC (μg/ml) reference 2 (1974): 5 µg/mL (≈ 6.62 µM)
[10]
  MIC (μg/ml) reference 1 (1966): 10 µg/mL (≈ 13.2 µM)
  MIC (μg/ml) reference 2 (1974): 10 µg/mL (≈ 13.2 µM)
[11]
  MIC (μg/ml) reference 1 (1966): 10 µg/mL (≈ 13.2 µM)
  MIC (μg/ml) reference 2 (1974): 10 µg/mL (≈ 13.2 µM)
[12]
  MIC (μg/ml) reference 1 (1966): 0.1 µg/mL (≈ 0.132 µM)
  MIC (μg/ml) reference 2 (1974): 0.05 µg/mL (≈ 0.0662 µM)
[13]
  In vivo lethal dose 50% (LD50) (mg/kg) intravenous in mice: 152 mg/kg
[14]
  Oral bioavailability: more orally bioavailable than OR-1

## (11,17)-17-Hydroperoxy-11-[3,4-(methylenedioxy)phenyl]-17-(1-propyn-1-yl)estra-4,9-dien-3-one-(11,17)-17-hydroxy-11-[3,4-(methylenedioxy)phenyl]-17-(1-propyn-1-yl)estra-4,9-dien-3-one (1:1) [PT157]
NF-κB
  Luciferase activity (suppression of inflammation): dose dependent decrease of luciferase activity
